Reference: article PMC3608532, “Characterization of a Single-Chain Variable Fragment Recognizing a Linear Epitope of Aβ: A Biotechnical Tool for Studies on Alzheimer’s Disease?” (PLoS ONE, 2013)

Experiments:
Aβ(1-8) = test: SPR binding kinetics to immobilized Aβ(1-8)
Method: Binding kinetics were determined by SPR using a Biacore™ X (GE Healthcare, UK). Synthetic Aβ peptides were dissolved in 10 mM NaAc, pH 4.0. The CM5 sensor chip surface (GE Healthcare, UK) was activated using N-ethyl-N′-3 […] carbodiimide (EDC) and N-hydroxysuccinimide (NHS) chemistry followed by 2-(2-pyridinyldithio)ethaneamine hydrochloride (PDEA), in order to introduce a reactive thiol group. Aβ was coupled via the C-terminal cysteine to the chip at a flow rate of 5 µl/min, and the remaining active groups were blocked by injecting cysteine. The immobilization procedure was performed according to manufacturer’s recommendation. All kinetic analyses were performed at a flow rate of 20 µl/min in PBS. Varying concentrations of scFv-IC16 (10 to 5000 nM) and IC16 (10 to 1000 nM) were injected. […] When required, the surface was regenerated by injecting 20 µl 50 mM glycine, pH 11.0. The data evaluation was performed using Biaevaluation Software 4.1.1. ScFv-IC16 data were fitted according to the Langmuir 1∶1 binding model, whereas IC16 data were fitted according to the bivalent binding model. Standard errors of equilibrium dissociation constants (KD) were calculated using standard errors of the corresponding association and dissociation rate constants.

Aβ(1-42) oligomers = test: ELISA binding to Aβ(1-42) oligomers; parameters: species or system human; details: 250 ng/well, 10% N-biotinylated oligomers on streptavidin plate; compared with fibrils, p = 0.0014
Method: (§1) 1 mg of Aβ(1-42) or N-terminally/C-terminally biotinylated Aβ(1-42) was dissolved in 1 ml 1,1,1,3,3,3-hexafluorosiopropanol (HFIP) and incubated overnight at room temperature. Afterwards, Aβ(1-42) was mixed in the favored ratio with N-terminally/C-terminally biotinylated Aβ(1-42) and aliquoted. HFIP was evaporated using a SpeedVac (Concentrator 5301, Eppendorf, Germany) at room temperature for 30 min. To evaporate remaining HFIP, the sample was incubated overnight at room temperature with an open lid.
(§2) The preparation of Aβ(1-42) monomers and oligomers was carried out by size exclusion chromatography (SEC) as already described by Johansson et al with minor modifications. 250 µg of Aβ peptide was dissolved in 130 µl SEC buffer (50 mM NaPi, pH 7.4; 150 mM NaCl; 0.6% Tween-20) and briefly centrifuged (1 min, 16 100×g, room temperature) to remove insoluble fibrillar material. 100 µl of the supernatant was applied on a Superdex75 10/300 column (GE Healthcare, UK) connected to an Äkta purifier system (GE Healthcare, UK). The sample was eluted at a flow rate of 0.6 ml per min at room temperature and detected at wavelengths of 214, 250 and 278 nm. […] The concentration of the Aβ preparations was determined using the Micro BCA Protein Assay Kit (Thermo Scientific, Waltham, MA, USA). […] The samples were measured at a wavelength of 570 nm with a Polarstar Optima plate reader (BMG, Ortenberg, Germany). […]

Aβ(1-42) fibrils = test: ELISA binding to Aβ(1-42) fibrils; parameters: species or system human; details: 250 ng/well, 10% N-biotinylated fibrils on streptavidin plate; scFv-IC16 12 and 23 nM; Penta-His and HRP anti-mouse detection, absorbance 450 nm
Method: as §1, §2

- k on (Aβ(1-8); SPR Biacore X, Aβ peptide coupled via C-terminal cysteine to CM5 chip, PBS, 25°C, 20 µl/min, global fit, scFv-IC16 Langmuir 1:1 model, IC16 bivalent model, ± standard error, SEM): 3.10±0.02×10^4 M^-1 s^-1
- Kd (Aβ(1-8); SPR Biacore X, CM5 chip, PBS, 25°C, global fit, scFv-IC16 Langmuir 1:1 model, IC16 bivalent model, standard error from kon and koff errors, SEM): 0.553 µM
- k off (Aβ(1-8); SPR Biacore X, CM5 chip, PBS, 25°C, global fit, scFv-IC16 Langmuir 1:1 model, IC16 bivalent model, ± standard error, SEM): 1.72±0.005×10^−2 s^-1
- Kd (Aβ(1-8); SPR, Langmuir 1:1 binding model): 0.55 µM
- ELISA binding to Aβ oligomers (Aβ(1-42) oligomers): weaker
Substance: scFv-IC16: single-chain variable fragment (VH-(Gly4Ser)3-VL, His6- and Myc-tag) derived from Aβ binding monoclonal antibody IC16, expressed in E. coli
- ELISA binding to Aβ fibrils (Aβ(1-42) fibrils): preferential binding
